Values quoted from earlier work in patent publication EP0349514A1, “Prolonged-release pharmaceutical composition containing erythromycine, its preparation and its use” (priority 1988, dated 1990).

Conditions: plasma

With CC[C@H]1OC(=O)[C@H](C)[C@@H](O[C@H]2C[C@@](C)(OC)[C@@H](O)[C@H](C)O2)[C@H](C)[C@@H](O[C@@H]2O[C@H](C)C[C@H](N(C)C)[C@H]2O)[C@](C)(O)C[C@@H](C)C(=O)[C@H](C)[C@@H](O)[C@]1(C)O [érythromycine] as the compound, how does the “temps de demi-vie plasmatique t 1/2” value read?
Its value is 1,6 h.
